# Patent US20120060243A1, “Herbicide-Resistant AHAS-Mutants and Methods of Use” (priority 2008, published 2012)
# Tests used:
# Type in all cases: in vivo, Brassica napus
# [1] = system: BnCL97 (BN-02) (AHASIII S653N); assay: Field test herbicide injury, Minot; details: 200 g ai/ha, 15 days after treatment, S653N single mutant BnCL97 (BN-02)
# Text: (§1) B. napus plants from the following spring oilseed rape lines: BN-02 (wild type), BN-T (wild type), BnCL131A1 in a BN-02 background genotype (AHAS III A122T S653N double mutant), BnCL120C7 in a BN-02 background genotype (BnAHASIII A122T), BnCL97 in a BN-02 background genotype (BnAHASIII S653N), PM1/PM2 in a BN-T background (two gene check: AHAS I S653N & AHAS III W574L), PM1 in a BN-T background (one gene check: AHAS I S653N) and PM2 in a BN-T background (one gene check: AHAS III W574L) were field tested at a site near Minot, N. Dak. Lines were planted in 5 m long single row plots and arranged in a two factorial split plot design with 3 repetitions and 4 treatments (0 g ai/ha imazamox, 50 g ai/ha imazamox, 100 g ai/ha imazamox and 200 g ai/ha imazamox). Plants were sprayed at the 2-4 leaf stage with the above mentioned imazamox treatments. The imazamox product (Beyond 120 g/L LC+0.25% (v/v) non-ionic surfactant) was diluted in 20 gallons per acre (or 200 liters/ha) and applied using a tractor mounted boom.
# (§2) Herbicide injury was evaluated 15 days after treatment (DAT) on a per plot basis using a scale from 0 to 100%, where 0 was no injury and 100% was complete plant death.
# [2] = system: BnCL131A1 (BN-02) (AHAS III A122T, S653N); assay: Field test herbicide injury, Minot; details: 200 g ai/ha
# Text: as §1, §2
# [3] = system: BNCL120C7 (BN-02) (AHASIII A122T); assay: Field test herbicide injury, Minot; details: 200 g ai/ha, 15 days after treatment, A122T single mutant BNCL120C7 (BN-02)
# Text: as §1, §2
# BN-02 (wild type) [4] = assay: Herbicide injury rating, Table 4; details: 3-4 leaf stage, 2 weeks post spray, line BN-02
# Protocol: Herbicide Injury Rating for Brassica napus Plants Treated with Imazamox. Plants for lines BN02 (wild type), two lines of BnCL131A1 (AHAS III A122T S653N double mutant; BnCL131A1.0 and BnCL131A1.18), PM1/PM2 (commercial two gene check: AHAS I S653N & AHAS III W574L) were grown […] Merge. Herbicide injury was evaluated 2 weeks post spray on 12 plants per line. The results are presented as mean injury±one standard error of the mean in Table 4 below. The results cover one planting and spray for all lines and the values for ±two standard error of the mean are also provided.
# [5] = system: BnCL120C7 (AHAS III A122T single mutant); assay: Plant injury after herbicide spray, Table 3; details: 3-4 leaf stage, 2 weeks after treatment, line BnCL120C7
# Protocol: (§3) B. napus plants containing the double mutant were also tested for plant injury due to imidazolinone herbicide application. B. napus plants for lines BN02 (wild type), BnCL131A1 (AHAS III A122T:S653N double mutant), BnCL120C7 (AHAS III A122T single mutant), BnCL97 (AHAS III S653N single mutant), PM1/PM2 (commercial two gene check), PM1 (AHAS I S653N single mutant) and PM2 (AHAS III W574L single mutant) were grown from seed until 3-4 leaf stage then either left unsprayed or sprayed with 35, 70 or 210 g ai/ha imazamox supplemented with 0.5% v/v Merge. Herbicide injury was evaluated 2 weeks after treatment (DAT) on 8-24 plants per line using a 0 to 9 scale where 0 is no injury and 9 is plant death. The results are presented as mean injury±one standard error of the mean in Table 3 below. The results presented cover two independent plantings and sprays for all lines except BnCL97. The table also presents values for ±one standard error of the mean.
# [6] = system: BnCL97 (AHAS III S653N single mutant); assay: Plant injury after herbicide spray, Table 3; details: 3-4 leaf stage, 2 weeks after treatment, line BnCL97
# Protocol: as §3
# [7] = system: PM1 (AHAS I S653N single mutant); assay: Plant injury after herbicide spray, Table 3; details: 3-4 leaf stage, 2 weeks after treatment, line PM1
# Protocol: as §3
# [8] = system: PM2 (AHAS III W574L single mutant); assay: Plant injury after herbicide spray, Table 3; details: 3-4 leaf stage, 2 weeks after treatment, line PM2
# Protocol: as §3
# BN-02 (wild type) [9] = assay: Plant injury after herbicide spray, Table 3; details: 3-4 leaf stage, 2 weeks after treatment, line BN-02
# Protocol: as §3
# [10] = system: PM1/PM2 (commercial two gene check); assay: Plant injury after herbicide spray, Table 3; details: 3-4 leaf stage, 2 weeks after treatment, line PM1/PM2
# Protocol: as §3
# [11] = system: BnCL131A1 (AHAS III A122T:S653N double mutant); assay: Plant injury after herbicide spray, Table 3; details: 3-4 leaf stage, 2 weeks after treatment, line BnCL131A1
# Protocol: as §3
compound,measurement,setting,value
COCc1cnc(C2=NC(C)(C(C)C)C(=O)N2)c(C(=O)O)c1 (centres unmarked) [imazamox],amount of tolerance (100% minus crop injury),[1],17%
same,amount of tolerance (100% minus crop injury),"[2]; field, 15 days after treatment, double mutant line BnCL131A1 (BN-02)",62%
same,expected tolerance if additive (A122T plus S653N),[2]; sum of tolerances of the two single mutant lines,37%
same,amount of tolerance (100% minus crop injury),[3],20%
same,"Herbicide injury rating, mean injury ± standard error of the mean",BN-02 (wild type) [4]; 35 g ai/ha + 0.5% v/v Merge,8.92 ± 0.08
same,"Herbicide injury rating, mean injury ± standard error of the mean",BN-02 (wild type) [4]; 70 g ai/ha + 0.5% v/v Merge,9.00 ± 0.00
same,"Herbicide injury rating, mean injury ± standard error of the mean",BN-02 (wild type) [4]; 210 g ai/ha + 0.5% v/v Merge,9.00 ± 0.00
same,"Herbicide injury rating, mean injury ± standard error of the mean",BN-02 (wild type) [4]; 420 g ai/ha,9.00 ± 0.00
same,"Herbicide injury, mean ± one standard error of the mean, 0 to 9 scale (0 no injury, 9 plant death)",[5]; 35 g ai/ha + 0.5% v/v Merge,4.19 ± 0.39
same,"Herbicide injury, mean ± one standard error of the mean, 0 to 9 scale (0 no injury, 9 plant death)",[5]; 70 g ai/ha + 0.5% v/v Merge,5.43 ± 0.24
same,"Herbicide injury, mean ± one standard error of the mean, 0 to 9 scale (0 no injury, 9 plant death)",[5]; 210 g ai/ha + 0.5% v/v Merge,6.65 ± 0.30
same,"Herbicide injury, mean ± one standard error of the mean, 0 to 9 scale (0 no injury, 9 plant death)",[6]; 35 g ai/ha + 0.5% v/v Merge,4.08 ± 0.15
same,"Herbicide injury, mean ± one standard error of the mean, 0 to 9 scale (0 no injury, 9 plant death)",[6]; 70 g ai/ha + 0.5% v/v Merge,8.58 ± 0.15
same,"Herbicide injury, mean ± one standard error of the mean, 0 to 9 scale (0 no injury, 9 plant death)",[6]; 210 g ai/ha + 0.5% v/v Merge,8.00 ± 0.23
same,"Herbicide injury, mean ± one standard error of the mean, 0 to 9 scale (0 no injury, 9 plant death)",[7]; 35 g ai/ha + 0.5% v/v Merge,7.22 ± 0.18
same,"Herbicide injury, mean ± one standard error of the mean, 0 to 9 scale (0 no injury, 9 plant death)",[7]; 70 g ai/ha + 0.5% v/v Merge,8.61 ± 0.12
same,"Herbicide injury, mean ± one standard error of the mean, 0 to 9 scale (0 no injury, 9 plant death)",[7]; 210 g ai/ha + 0.5% v/v Merge,9.00 ± 0.00
same,"Herbicide injury, mean ± one standard error of the mean, 0 to 9 scale (0 no injury, 9 plant death)",[8]; 35 g ai/ha + 0.5% v/v Merge,1.81 ± 0.25
same,"Herbicide injury, mean ± one standard error of the mean, 0 to 9 scale (0 no injury, 9 plant death)",[8]; 70 g ai/ha + 0.5% v/v Merge,4.14 ± 0.23
same,"Herbicide injury, mean ± one standard error of the mean, 0 to 9 scale (0 no injury, 9 plant death)",[8]; 210 g ai/ha + 0.5% v/v Merge,6.17 ± 0.22
same,"Herbicide injury, mean ± one standard error of the mean, 0 to 9 scale (0 no injury, 9 plant death)",BN-02 (wild type) [9]; 35 g ai/ha + 0.5% v/v Merge,9.00 ± 0.00
same,"Herbicide injury, mean ± one standard error of the mean, 0 to 9 scale (0 no injury, 9 plant death)",BN-02 (wild type) [9]; 70 g ai/ha + 0.5% v/v Merge,9.00 ± 0.00
same,"Herbicide injury, mean ± one standard error of the mean, 0 to 9 scale (0 no injury, 9 plant death)",BN-02 (wild type) [9]; 210 g ai/ha + 0.5% v/v Merge,9.00 ± 0.00
same,"Herbicide injury, mean ± one standard error of the mean, 0 to 9 scale (0 no injury, 9 plant death)",[10]; 35 g ai/ha + 0.5% v/v Merge,1.21 ± 0.33
same,"Herbicide injury, mean ± one standard error of the mean, 0 to 9 scale (0 no injury, 9 plant death)",[10]; 70 g ai/ha + 0.5% v/v Merge,4.13 ± 0.36
same,"Herbicide injury, mean ± one standard error of the mean, 0 to 9 scale (0 no injury, 9 plant death)",[10]; 210 g ai/ha + 0.5% v/v Merge,4.93 ± 0.53
same,"Herbicide injury, mean ± one standard error of the mean, 0 to 9 scale (0 no injury, 9 plant death)",[11]; 35 g ai/ha + 0.5% v/v Merge,0.76 ± 0.33
same,"Herbicide injury, mean ± one standard error of the mean, 0 to 9 scale (0 no injury, 9 plant death)",[11]; 70 g ai/ha + 0.5% v/v Merge,2.53 ± 0.24
same,"Herbicide injury, mean ± one standard error of the mean, 0 to 9 scale (0 no injury, 9 plant death)",[11]; 210 g ai/ha + 0.5% v/v Merge,3.22 ± 0.33
